In test [1] the target is S. mansoni p97 (Smp_018240) (Schistosoma mansoni, UniProt G4M0P7). The test is described as follows: biochemical. The procedure: E. coli BL21 (DE3) containing the desired plasmid were grown in LB medium containing […] kanamycin while shaking at 37 °C to an OD600 of 0.6–0.8. The temperature was reduced to 18°C and 0.8 mM isopropyl-beta-D-thiogalactopyranoside (IPTG) was added. The bacterial culture was harvested 16hr later by centrifugation. The resulting pellet was suspended in 60 mL lysis buffer/2L bacterial culture [20 mM Tris (pH 7.4), 300 mM NaCl, 5 mM MgCl2, 20 mM imidazole, 1% Triton X-100, 1 mg/mL lysozyme, 10% glycerol, 3 mM β-mercaptoethanol, 0.2 mM PMSF, and protease inhibitor tablet (Roche)]. […] The lysate was centrifuged at 40,000 × rpm for 35 min at 4°C. The resulting supernatant was incubated with Ni-NTA beads equilibrated to lysis buffer for 1 hr at 4°C before being loaded onto a gravity column. The bead bed was washed with wash buffer [20 mM Tris (pH 7.4), 500 mM NaCl, 5 mM MgCl2, 40 mM imidazole, 0.05% Triton X-100, 10% glycerol, 3 mM β-mercaptoethanol, 0.2 mM PMSF, 0.001 mg/mL Aprotinin, and 0.002 mg/mL Leupeptin], then eluted in the same buffer with 250 mM imidazole in wash buffer. Fractions containing p97 were concentrated using Pierce Protein Concentrators (100k MWCO) and loaded onto a gel-filtration column (Superdex 200PG) and eluted using SEC buffer [20 mM Tris (pH 7.4), 180 mM NaCl, 5 mM MgCl2, and 10% glycerol] at 0.5 mL/min flow rate on a BioRad NGC Chromatography System. Fractions corresponding to an apparent molecular weight of 500 – 600 kDa were collected and analyzed by 4–20% SDS/PAGE to evaluate purity. Concentration was determined using a BSA standard. Fractions containing purified protein were aliquoted, snap frozen in liquid nitrogen, and stored at −80 °C until use.
Sequence of S. mansoni p97 (Smp_018240) (G4M0P7 entry or part of it): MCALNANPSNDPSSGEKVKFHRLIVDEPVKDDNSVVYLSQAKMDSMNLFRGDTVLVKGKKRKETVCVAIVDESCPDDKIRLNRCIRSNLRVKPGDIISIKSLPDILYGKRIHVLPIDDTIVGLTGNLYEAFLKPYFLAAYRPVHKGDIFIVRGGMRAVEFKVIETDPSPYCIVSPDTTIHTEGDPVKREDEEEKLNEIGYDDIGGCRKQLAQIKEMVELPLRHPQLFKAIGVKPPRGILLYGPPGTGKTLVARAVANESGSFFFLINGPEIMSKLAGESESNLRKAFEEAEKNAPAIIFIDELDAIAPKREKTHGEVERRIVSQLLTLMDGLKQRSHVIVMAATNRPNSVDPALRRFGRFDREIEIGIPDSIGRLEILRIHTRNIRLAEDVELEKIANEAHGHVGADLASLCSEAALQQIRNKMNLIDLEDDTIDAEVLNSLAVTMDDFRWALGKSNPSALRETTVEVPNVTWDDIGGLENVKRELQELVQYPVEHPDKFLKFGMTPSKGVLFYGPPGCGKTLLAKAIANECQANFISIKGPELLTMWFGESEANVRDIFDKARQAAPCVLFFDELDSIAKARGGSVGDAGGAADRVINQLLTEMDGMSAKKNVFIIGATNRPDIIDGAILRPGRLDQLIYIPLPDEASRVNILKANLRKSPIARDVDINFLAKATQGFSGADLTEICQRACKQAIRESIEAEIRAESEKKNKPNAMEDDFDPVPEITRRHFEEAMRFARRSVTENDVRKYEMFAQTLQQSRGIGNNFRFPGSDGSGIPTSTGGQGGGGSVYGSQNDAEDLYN
For manual ATP consumption assays, 1 μM p97 was incubated with 1% DMSO or inhibitor (1% DMSO final) in assay buffer [50 mM Tris (pH 7.5), 20 mM MgCl2, 1 mM EDTA, 0.5 mM tris(2-carboxyethyl)phosphine (TCEP)] for 5 minutes prior to the addition of 20 μM ATP in a 384-well plate for a total reaction volume of 10 μL, and a final concentration of 500nM enzyme and 10 μM ATP. The reaction was allowed to proceed for 50 minutes at room temperature before adding equivalent volume of Kinase-Glo Plus reagent (Promega), and a further incubation of 10 minutes in the dark.
IC50 values were calculated using GraphPad Prism.

A further test deals with T1, H. sapiens p97 (P55072) (Homo sapiens, UniProt P55072).
T1 construct: 6xHis (C); made in house; host or cells: E. coli BL21 (DE3)
T1 sequence (P55072 whole entry): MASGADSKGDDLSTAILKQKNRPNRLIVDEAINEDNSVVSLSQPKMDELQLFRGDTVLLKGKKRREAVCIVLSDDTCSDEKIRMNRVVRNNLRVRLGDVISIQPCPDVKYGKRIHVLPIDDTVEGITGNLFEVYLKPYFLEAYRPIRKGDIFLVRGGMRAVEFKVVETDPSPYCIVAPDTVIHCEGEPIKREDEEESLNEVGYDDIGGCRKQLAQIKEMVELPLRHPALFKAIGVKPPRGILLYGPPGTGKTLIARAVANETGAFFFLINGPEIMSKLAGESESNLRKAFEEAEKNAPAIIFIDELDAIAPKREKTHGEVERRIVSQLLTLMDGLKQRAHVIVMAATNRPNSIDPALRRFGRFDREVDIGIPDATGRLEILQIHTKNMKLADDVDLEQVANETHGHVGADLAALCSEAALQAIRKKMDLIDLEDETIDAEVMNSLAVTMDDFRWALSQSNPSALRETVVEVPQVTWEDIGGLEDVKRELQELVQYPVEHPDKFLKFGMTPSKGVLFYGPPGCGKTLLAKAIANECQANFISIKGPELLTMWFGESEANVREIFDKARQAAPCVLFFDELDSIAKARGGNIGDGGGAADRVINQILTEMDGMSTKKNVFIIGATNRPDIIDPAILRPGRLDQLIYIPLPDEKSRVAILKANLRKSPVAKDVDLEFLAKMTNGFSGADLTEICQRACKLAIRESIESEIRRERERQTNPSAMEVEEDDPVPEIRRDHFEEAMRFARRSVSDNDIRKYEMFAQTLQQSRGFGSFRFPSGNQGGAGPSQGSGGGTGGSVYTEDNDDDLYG
The test is described as follows: p97 ATPase activity, ATP consumption assay (Kinase-Glo), IC50 / counter screen. In kind it is biochemical. (In general: Kinase-Glo reads ATP consumption through a luciferase reaction.)

In another test the test system is HepG2 cells. The test is described as follows: HepG2 cytotoxicity assay (Cell Titer Glo 2.0). The class given is cell-based, human. Conditions: Homo sapiens. The procedure: HepG2 cells (ATCC) were plated at 2500 cells/well in 50 μL/well, dispersing cells using a 25g needle to break up clumps prior to plating. Plates were incubated for 24hr at 37C, 5% CO2. Following 24hr, 50 μL media containing 0.6% DMSO was added to a set of wells on one plate. The plate and Cell Titer Glo 2.0 reagent were brought to RT. A T=0 read was taken by adding 40 μL reagent/well, rocking the plate at 100 rpm for 2 min, then reading luminescence ~10 min later. […] 50 μL 2x concentrated compound was added to wells containing cells in 50 μL 24 hr after plating. Concentrations were tested in triplicate at following values: 30, 10, 3.3, 1.1, 0.37, 0.12, and 0.04 μM. Plates were incubated for 72 hr at 37C, 5% CO2. Following equilibration to room temperature, 40 μL undiluted reagent was added to each well, the plate rocked at 100 rpm for 2 min and then read for luminescent signal ~10 min later.
Values are plotted in excel and the 50% point determined by interpolation. Values were revisualized in Prism.

The next test concerns adult S. mansoni worms. In words: Treatment of adult S. mansoni worms in culture with inhibitors (attachment to tissue culture substrate, morphology; single 10 μM and dose-response EC50). The class given is cell-based, Schistosoma mansoni. Conditions: for effect on adult parasites: inhibitors of human targets. As for the experimental part: Adult S. mansoni (NMRI strain) (6–7 weeks post-infection) worms were harvested from infected female Swiss Webster mice by hepatic portal vein perfusion using 37°C DMEM (Mediatech, Manassas, VA), 8% Horse Serum, and heparin.
Roughly 5 adult worm pairs were placed in 3mL Basch medium in a 12-well culture vessel, and incubated at 37°C, 5% CO2 for the length of the experiment. Compound was administered at D0, D1, and D2, media and drug refreshed every 24 hr. Worms were then allowed to remain in culture until D5, where a final assessment of worm attachment to tissue culture substate was made by light microscopy. Observations on movement and morphology were also recorded. A negative control (0.1% DMSO) and positive control (PZQ; 10 μM in 0.1% DMSO) were included in each experiment, and each experiment was repeated in triplicate for validation. For compounds that caused complete detachment in replicate experiments, the treatment was expanded to three concentrations (10 μM, 5 μM, and 1 μM) following the same treatment schedule and controls as detailed above. […] Each titration experiment was performed in triplicate according to the treatment regimen described above, using DMSO and PZQ as appropriate controls. Morphologies and motility were assessed by light microscopy, and dose-response curves were calculated using the primary readout of parasite attachment to tissue culture substrate in GraphPad Prism. […]
[…] Values were calculated using Prism.

Test [2] has as its system S. mansoni vcp/p97 (Smp_018240). In words: High-throughput screening (HTS) assay, Kinase-Glo, 10 μM single concentration. In kind it is biochemical, Schistosoma mansoni. Conditions: 10 μM compound; normalized to CB-5083; Fig. 4A. An excerpt: Kinase-Glo (Promega, part K1214) was purchased from Promega. Microtiter plates (384 wells) were purchased from Perkin Elmer. All chemicals included in the UTSW library were sourced from commercial sources [ChemDiv (150,000 compounds), ChemBridge (125,500), ComGenex (22,000), Prestwick Chemical, (1,100) and TimTec (500)] or UT Southwestern chemists (https://www.utsouthwestern.edu/research/core-facilities/high-throughput-screening/libraries/). For initial screening, compounds were dispensed by Echo 555 robot for a final concentration of 10 μM (0.2% DMSO). Luminescence was read by EnVision multimode plate reader (Perkin-Elmer). Assay conditions were consistent between manual and high-throughput assays [10 μM ATP, 50 mM Tris (pH 7.5), 20 mM MgCl2, 1 mM EDTA, 0.5 mM tris(2-carboxyethyl)phosphine (TCEP)]. The plates were then incubated for 50 min at room temperature before addition of Kinase-Glo reagent and further incubation in the dark for 10 minutes before reading luminescence. […] Hit compounds were validated using a dose-response curve (19.8 μM, 9.92 μM, 4.96 μM, 3.72 μM, 2.48 μM, 1,24 μM, 0.619 μM, 0.342 μM, 0.256 μM, 0.171 μM, 0.0854 μM, 0.0427 μM, and 0 μM) in triplicate. Compounds were also subjected to a counter screen using a dose-response curve against the full-length human p97 enzyme to determine preliminary selectivity.

The test system of test [3] is K48 polyubiquitinated proteins. In words: Western blot of drug-treated worm lysate with K48-linkage specific polyubiquitin antibody. The conditions noted are these: worm lysate after 48 hr of treatment. In kind it is cell-based, Schistosoma mansoni. The procedure: For drug treatment studies, 10 male adult worms (single or paired with females) were supplemented with either 0.1% DMSO or inhibitor (0.1% DMSO final). […]. After 48 hr, male parasites were separated from females using 0.25% tricaine in Basch Media 169, flash frozen in liquid nitrogen, and stored at −80°C until further processing. Male worm samples were homogenized with a pestle in 50 μL lysis buffer containing 2X sample buffer [0.471 M Tris (pH 6.7 with phosphoric acid), 20% glycerol, 5% SDS), protease inhibitor cocktail (Roche, cOmplete Mini, EDTA-free Tablets) and 10 mM DTT. The lysates were then sonicated on high for 5 min (30 sec on, 30 sec off) using a Bioruptor UCD-200. Lysates were centrifuged for 5 min at 10,000 g to remove debris. Total protein was measured using the Detergent Compatible Bradford Assay (Pierce). 50 μg of protein samples denatured in SDS Sample buffer (95°C for 5 min) were separated on a Bio-Rad 4–20% TGX Stain-Free gel along with Precision Plus Protein Dual Color Standards (Bio-Rad) as a marker. Proteins were then transferred to a nitrocellulose membrane (Bio-Rad). The membrane was blocked in a 1:5 solution of Li-Cor Odyssey Blocking buffer in PBST for 1 hr before being immunoblotted overnight at 4°C with 1:500 K48-linkage Specific Polyubiquitin Antibody (Cell Signaling Technology, 4289S) and 0.01 μg/mL mouse anti-actin antibody (1:10,000) (Developmental Studies Hybridoma Bank, JLA20) diluted in a 1:5 solution of Li-Cor Odyssey Blocking buffer in PBST. The membrane was washed 3x in TBST and then incubated in 1:5 Li-Cor Odyssey Blocking buffer containing the secondary antibodies (1:10,000 Li-Cor, 925–68071, goat anti-rabbit IRDye 680 RD, and 1:20,000 Li-Cor, 925–32280, goat anti-mouse IgM IRDye 800CW) for 1 hr at RT. The blot was washed in TBST 3x before being imaged on a LiCor Odyssey Infrared Imager.
For orientation: In western blotting, separated proteins are transferred to a membrane and probed.

Where [4] appears, read: recombinant enzyme, Kinase-Glo, Fig. 3D, read-out: S. mansoni (IC50).
The mark [5] stands for this setting: recombinant enzyme, Kinase-Glo, Fig. 3D.

“Also recorded” adds a separate entry of the source. Like-named read-outs stand apart in the source and are kept apart here.

`O=C(C#Cc1ccccc1)Nc1ccc2oc(-c3ccccn3)nc2c1` [Compound 243, 3-phenyl-N-(2-(pyridin-2-yl)benzo[d]oxazol-5-yl)propiolamide]: the “Fold Selectivity” value in test [1] is recorded as 9.5. Further, the IC50 was found to be 2.1 ± 0.75 µM in test [1] (Sm p97, 100 μM – 1 nM, Suppl. Fig. 9C, read-out: S. mansoni IC50); 2.1 ± 0.75 µM in test [1] (Smp97, re-tested screen compounds, 100 μM-1 nM, Fig. 4A, read-out: S. mansoni IC50); 2.1 ± 0.75 µM in test [1] (p97 enzyme, Suppl. Fig. 11D, read-out: S. mansoni IC50); 2.1 ± 0.75 µM in test [1] (recombinant parasite enzyme, 100 μM-1 nM, Fig. 4D, read-out: S. mansoni IC50); 20 ± 0.54 µM at H. sapiens p97 (P55072) (Hs p97, 100 μM – 1 nM, Suppl. Fig. 9C); 20 ± 0.54 µM on H. sapiens p97 (P55072) (Hsp97, re-tested screen compounds, 100 μM-1 nM, Fig. 4A). Further, the IC50 turned out to be 20 ± 0.54 µM at H. sapiens p97 (P55072) (p97 enzyme, Suppl. Fig. 11D); 20 ± 0.54 µM at H. sapiens p97 (P55072) (recombinant human enzyme, 100 μM-1 nM, Fig. 4D); 9.6 µM in the test on HepG2 cells (HepG2, 72 h); 9.6 µM with HepG2 cells (HepG2, read-out: HepG2 IC50). In addition, the 50% growth inhibitory concentration (GI50) stood at 5.6 µM with HepG2 cells (HepG2, 72 h) and 5.6 µM in the test with HepG2 cells (HepG2, read-out: HepG2 GI50). The “time to detachment of adult worms in culture” value with adult S. mansoni worms (10 μM) is ≤ 48 h. In addition, the EC50 with adult S. mansoni worms (Schistosoma mansoni, adult parasites, fraction of worms attached, 72 hours of drug treatment, in culture until D5, 50 μM - 10 nM, Suppl. Fig. 9C, read-out: S. mansoni EC50) is 3.5 µM. Moreover, in the test with adult S. mansoni worms (benzoxazole propiolamide series, 10 μM, treated 72 hours, monitored until D5), the “effect on adult worms” value is “led to death in adult parasites; also recorded: ultimately leading to their death”. In test [2], the “Screen Inhibition” value turned out to be 46%.

In the case of `c1ccc(CNc2nc(NCc3ccccc3)c3ccccc3n2)cc1` [DbeQ, reference compound], the IC50 in test [1] (setting [4]) came to 12 µM; at H. sapiens p97 (P55072) (setting [5]), 0.91 ± 0.39 µM. Besides, the “effect on adult parasites” value in the test with adult S. mansoni worms (10 μM) was “activity on the worms”. Also, in test [3], the “accumulation of K48 polyubiquitinated proteins by western blot” value (“accumulation” for short) is “did not observe the same accumulation”.

With `CC1(C)C(N(O)C(=O)Nc2ccc(Cl)cc2)N(c2ccc(Cl)cc2)C(=O)N1CC(=O)N/N=C/C=C/c1ccc([N+](=O)[O-])o1` (stereo not drawn) [Eeyarestatin I, reference compound], in the test with adult S. mansoni worms (10 μM), the “effect on adult parasites” value was “effective”. The “accumulation” value in test [3] is recorded as “did not see significant increases in K48 abundance”.

`COc1cccc2c(NCc3ccccc3)nc(-n3c(N)nc4ccccc43)nc12` [ML240, reference compound]: the “selectivity for the schistosome enzyme over its human counterpart” value in test [1] is ~ 5 fold. In addition, the values for the IC50 (in test [1] (setting [4]); at H. sapiens p97 (P55072) (setting [5])) were 0.066 ± 0.0097 µM and 0.33 ± 0.061 µM, respectively. Further, the “effect on adult parasites” value with adult S. mansoni worms (10 μM) is recorded as “killed parasites quickly”. The “accumulation” value in test [3] is recorded as “did not observe the same accumulation”.

For `CC(C)N1CCN(CCNC2CCN(c3cccc(-c4cc5cc(F)ccc5[nH]4)c3)CC2)CC1` [UPCDC-30245, reference compound], the “selectivity between schistosome and human p97” value in test [1] was “selective in favor of the human enzyme; also recorded: decreased potency”. Further, the IC50 in test [1] (setting [4]) was 4.1 µM; at H. sapiens p97 (P55072) (setting [5]) it was 0.97 ± 0.067 µM. The “effect on adult parasites” value with adult S. mansoni worms (10 μM) is “effective”. Also, in test [3], the “accumulation” value is given as “did not see significant increases in K48 abundance”.

A word on the IC50: it is the midpoint of a concentration-inhibition curve. Broadly, the GI50 is the concentration giving 50% growth inhibition. What is called EC50 is the concentration at which the effect is half-maximal.

The values are drawn from publication doi:10.1101/2025.03.14.643303, “A genome-scale drug discovery pipeline uncovers new therapeutic targets and a unique p97 allosteric binding site in Schistosoma mansoni” (bioRxiv, 2025).
